From patent EP4178959B1, “NITROGEN HETEROCYCLIC CYTOKININ DERIVATIVES, COMPOSITIONS CONTAINING THESE DERIVATIVES AND USE THEREOF” (Univerzita Palackého v Olomouci, priority 2020, dated 2022)

Assays:
[1] = test system: BJ (human foreskin fibroblasts); assay: Calcein AM cytotoxicity assay, BJ cells; conditions: read-out: Cytotoxicity IC50, BJ; Calcein AM, 72 hours
Experimental: (§1) All compound concentrations were examined in duplicates. […] Zero cytotoxicity is a basic prerequisite for the use of these substances in cosmetical applications. To assess the antitumor activity, the toxicity of new derivatives on panels containing cell lines of different histogenic and species origin was tested (Table 5). […] The compounds listed in Table 5 can be divided into 2 groups.
(§2) The first group contains "classical cytokinins" represented by 6-substituted purines (their effects are already known). The second group includes novel 2-fluoro-N6-substituted-9-(2-oxacycloalkyl)-9H-purine-6-amine derivatives. […] Low cytotoxicity (high IC50 value) of the compounds is the basic prerequisite for cosmetic and medical applications. […] Table 5: Cytotoxicity of novel compounds for different normal cell lines tested / IC50 (µmol/L)

Arabidopsis thaliana [2] = assay: Effect on the root proliferation of Arabidopsis thaliana; type: in vivo, Arabidopsis thaliana (ecotype Columbia); conditions: for Concentration with highest activity: number of lateral roots; for Activity (%) [10^-8 mol.l^-1 Kin = 100%]: number of lateral roots (% of control), at concentration with highest activity
Experimental: Arabidopsis thaliana seeds (ecotype Columbia) were sterilized with 70% ethanol and 0.1% Triton X-100 and then washed with 70% ethanol containing 0.01% Triton X-100. Then the seeds were transferred to vertical square petri dishes (11 seeds per dish) on a solid medium consisting of MS (2.15 g/l), MES (0.5 g/l), sucrose (1 g/l), agar (11 g/l), buffered to pH 5.8, and various concentrations of tested compounds. The compounds were dissolved in DMSO, thus 0.05% DMSO was used as a control solution. After incubation for 3 days in darkness at 4°C, the seeds were germinated and grown in an environmental chamber (fluorescence light intensity 150 µE m^-2 s^-1, humidity 55%, 16 h day/8 h night, 22°C). […] The number of lateral roots was scored under a stereomicroscope. […] In addition, compounds with tetrahydropyranyl protection at N9 slightly increase the number of emerged lateral roots (Fig 3C). […] Table 6: […]

excised wheat leaf tips = assay: Senescence inhibition on winter wheat leaf segments (chlorophyll retention); parameters: species or system Triticum aestivum cv. Hereward; conditions: for Concentration with highest activity: retention of chlorophyll; for Activity (%) [10^-4mol.l^-1 KTHP = 100%] / Emax: retention of chlorophyll in excised wheat leaf tips, 96 h in the dark, at concentration with highest activity; for Emax: Triticum aestivum, foliar, read-out: Activity (%) [10^-4mol.l^-1 KTHP = 100%]
Experimental: Seeds of winter wheat, Triticum aestivum cv. Hereward, were washed under running water for 24 hours and then sown on vermiculite soaked with the Knop's solution. They were placed in the grow chamber at 25 °C with a 16/8 h light period at 50 μmol.m^-2.s^-1. After 7 days, the first leaf was fully developed and the second leaf had started to grow. A tip section of the first leaf, approximately 35 mm long, was removed from 5 seedlings and trimmed slightly to a combined weight of 100 mg. The basal ends of the five leaf tips were placed in the wells of a microtiter polystyrene plate containing 150 μl of the solution of the tested compound each. The entire plate was inserted into a plastic box lined with paper tissues soaked with distilled water to prevent leaf sections from drying out. […] The absorbance of the extract was recorded at 665 nm. In addition, chlorophyll extracts from fresh leaves and leaf tips incubated in deionised water were measured. From the obtained data, the concetration with the highest activity was selected for each compound tested. Relative activity of the compound at this concentration was calculated (Table 7). […] The values shown are means of five replicates and the whole experiment was repeated twice. The compounds to be tested were dissolved in dimethylsulfoxide (DMSO) and the solution brought up to 10^-3 M with distilled water. […] The compounds listed in Table 7 can be divided into 2 groups. The first group contains "classical 6,9-disubstituted purines (KTHP as a control)" known in prior art. […] Table 9: […]

[3] = test system: mouse immortalized bone marrow macrophages B10A.4; assay: Calcein AM cytotoxicity assay, B10A.4 cells; conditions: read-out: Cytotoxicity IC50, B10A.4, first column headed B10A.4, 72 hours
Experimental: as §1, §2

Mouse fibroblasts NIH3T3 = assay: Calcein AM cytotoxicity assay, NIH3T3 cells; conditions: read-out: Cytotoxicity IC50, NIH-3T3; Calcein AM, 72 hours
Experimental: as §1, §2

Zea mays seedlings = assay: Effect on development of Zea mays seedlings (hydroponic); type: in vivo, Zea mays cv. CELLUX; conditions: for Root dry mass (%) [4 x 10^-8 mol.l^-1 Kin = 100%] / Shoot dry mass (%) [10^-6 mol.l^-1 Kin = 100%]: at concentration with highest activity
Experimental: Maize seeds (Zea mays cv. CELLUX) were imbibed in tap water and germinated on a wetted filter paper. After 3 days, the germinated seedlings were transferred to aerated hydroponic tanks filled with Hoagland's nutrient solution. The plants were grown in an environmental chamber with 16 h light period (250 μE m^-2 s^-1) at 27°C and 8 h dark period at 20°C. Tested compounds diluted in DMSO were added to nutrient solution immediately when seedlings were nested in the tanks or after two additional days of cultivation. Control plants were grown in parallel with addition of corresponding amount of DMSO (up to 0.01%). Root and leaf tissues of ten plants were harvested at different time points after the application of the compounds, immediately frozen in liquid nitrogen and used for cytokinin content and transcript level analysis. Length of primary root and the first leaf were determined with ruler on sets of twelve plants, each cultivated in the independent tank (for every cytokinin application repeated ten times). Dry mass of root system and the aerial part was determined after cutting off the kernel and desiccation in dryer for two days at 60°C. […] Fig. 4) and up to 1 micromolar concentration when more seedlings were in the solution (approx. 50 seedlings per 1 liter; Fig. 5). […] Table 7: […]

[4] = Calcein AM cytotoxicity assay, BJ cells; conditions: human; for CC50 at 72 h: bj fibroblasts
Experimental: as §1, §2

[5] = Calcein AM cytotoxicity assay, B10A.4 cells; conditions: mouse; for CC50 at 72 h: b10a.4 macrophages
Experimental: as §1, §2

[6] = Calcein AM cytotoxicity assay, NIH3T3 cells; conditions: mouse; for CC50 at 72 h: nih3t3 cells
Experimental: as §1, §2

Arabidopsis thaliana [7] = assay: Arabidopsis root growth inhibition test; type: in vivo, Arabidopsis thaliana (ecotype Columbia); conditions: for Primary root length 7-d, WT = 100%: 7-d-old plants
Experimental: Arabidopsis thaliana seeds (ecotype Columbia) were sterilized with 70% ethanol and 0.1% Triton X-100 and then washed 4 times with sterile water. The seeds were transferred to Petri dishes on a solid medium consisting of MS (2.2 g l^-1), sucrose (10 g l^-1), agar (8 g l^-1), and supplemented with cytokinins or DMSO control (0.1% DMSO). After incubation for 3 days in darkness at 4°C, the seeds were germinated and grown horizontally in an environmental chamber at 22/20 °C under an 8 h light (120 µmol photons m^-2 s^-1)/16 h dark cycle for 4 days. 7-d-old seedling were used for measurements of the primary root length. At least 35 plants were used for each treatment and each treatment was repeated in at least 5 individual Petri dishes. The length of the primary root was evaluated using Scion Image software (Scion Corporation, Frederick, MD, USA). All measured parameters were statistically evaluated between untreated and treated plants according to Student's unpaired t-test. […] Tab. Inhibition of the primary root growth in 7-d-old Arabidopsis plants. 100% = WT plants, DMSO treated.

[8] = Cytotoxicity IC50, B10A.4, first column headed B10A.4
[9] = tested concentration 0.04 µmol.l^-1
[10] = tested concentration 1 µmol.l^-1
[11] = tested concentration 25 µmol.l^-1

C/C(=C\CO)CNc1nc(F)nc2c1ncn2C1CCCO1 (stereo not shown) [Compound 6]
CC50 [1]: > 167 µM
Concentration with highest activity (Arabidopsis thaliana [2]): 10^-5 mol.l^-1
Activity (%) [10^-8 mol.l^-1 Kin = 100%] (Arabidopsis thaliana [2]): 48.5 (± 6) %
Concentration with highest activity (excised wheat leaf tips): 10^-4 mol.l^-1
Activity (%) [10^-4mol.l^-1 KTHP = 100%] (excised wheat leaf tips): 138.2 (± 17) %
CC50 [3]: > 167 µM
CC50 (Mouse fibroblasts NIH3T3): > 167 µM
Root dry mass (%) [4 x 10^-8 mol.l^-1 Kin = 100%] (Zea mays seedlings): 167.2 (± 14) %
Shoot dry mass (%) [10^-6 mol.l^-1 Kin = 100%] (Zea mays seedlings): 121.2 (± 6) %
Concentration with highest activity (Zea mays seedlings; root dry mass): 10^-7 mol.1^-1
Concentration with highest activity (Zea mays seedlings; shoot dry mass): 10^-6 mol.1^-1

Oc1cccc(CNc2nc(F)nc3c2ncn3C2CCCO2)c1O (stereo not shown) [Compound 29]
CC50 [1]: > 167 µM
Concentration with highest activity (excised wheat leaf tips): 10^-4 mol.l^-1
Activity (%) [10^-4mol.l^-1 KTHP = 100%] (excised wheat leaf tips): 15 (±5) %
CC50 [3]: > 167 µM
CC50 (Mouse fibroblasts NIH3T3): > 167 µM

Fc1nc(NCc2ccco2)c2ncn(C3CCCCO3)c2n1 (stereo not shown) [Compound 57, 2-Fluoro-6-furfurylamino-9-(tetrahydro-2H-pyran-2-yl)-9H-purine]
IC50 at 72 h [4]: 132 µM
Concentration with highest activity (Arabidopsis thaliana [2]): 10^-6 mol.l^-1
Activity (%) [10^-8 mol.l^-1 Kin = 100%] (Arabidopsis thaliana [2]): 68.4 (± 8) %
Emax (excised wheat leaf tips): 111%
IC50 at 72 h [5, 8]: 149 µM
IC50 at 72 h [6]: 138 µM
Root dry mass (%) [4 x 10^-8 mol.l^-1 Kin = 100%] (Zea mays seedlings): 183.9 (± 24) %
Shoot dry mass (%) [10^-6 mol.l^-1 Kin = 100%] (Zea mays seedlings): 112.8 (± 11) %
Concentration with highest activity (Zea mays seedlings; root dry mass): 10^-7 mol.1^-1
Concentration with highest activity (Zea mays seedlings; shoot dry mass): 10^-6 mol.1^-1

Fc1nc(NCc2ccccc2)c2ncn(C3CCCCO3)c2n1 (stereo not shown) [Compound 64, 2-Fluoro-6-benzylamino-9-(tetrahydro-2H-pyran-2-yl)-9H-purine]
IC50 at 72 h [4]: 124 µM
Concentration with highest activity (Arabidopsis thaliana [2]): 10^-6 mol.l^-1
Activity (%) [10^-8 mol.l^-1 Kin = 100%] (Arabidopsis thaliana [2]): 61.2 (± 3) %
Emax (excised wheat leaf tips): 110%
IC50 at 72 h [5, 8]: 121 µM
IC50 at 72 h [6]: 128 µM
Root dry mass (%) [4 x 10^-8 mol.l^-1 Kin = 100%] (Zea mays seedlings): 168.9 (± 16) %
Shoot dry mass (%) [10^-6 mol.l^-1 Kin = 100%] (Zea mays seedlings): 108.9 (± 8) %
Concentration with highest activity (Zea mays seedlings; root dry mass): 10^-7 mol.1^-1
Concentration with highest activity (Zea mays seedlings; shoot dry mass): 10^-6 mol.1^-1

Oc1cccc(CNc2nc(F)nc3c2ncn3C2CCCCO2)c1 (stereo not shown) [Compound 65, 2-Fluoro-6-[(3-hydroxybenzyl)amino]-9-(tetrahydro-2H-pyran-2-yl)-9H-purine]
IC50 at 72 h [4]: > 167 µM
Concentration with highest activity (Arabidopsis thaliana [2]): 10^-5 mol.l^-1
Activity (%) [10^-8 mol.l^-1 Kin = 100%] (Arabidopsis thaliana [2]): 32.6 (± 6) %
Emax (excised wheat leaf tips): 128%
IC50 at 72 h [5, 8]: > 167 µM
IC50 at 72 h [6]: > 167 µM
root growth inhibition (in words) (Arabidopsis thaliana [7]; compared to WT, 7-d-old seedlings): did not caused the inhibition of root
Primary root length 7-d, WT = 100% (Arabidopsis thaliana [7]; [9]): 102.9 (±11.0) %
Primary root length 7-d, WT = 100% (Arabidopsis thaliana [7]; [10]): 40.6 (±2.1) %
Primary root length 7-d, WT = 100% (Arabidopsis thaliana [7]; [11]): 31.3 (±1.8) %
Root dry mass (%) [4 x 10^-8 mol.l^-1 Kin = 100%] (Zea mays seedlings): 187.3 (± 18) %
Shoot dry mass (%) [10^-6 mol.l^-1 Kin = 100%] (Zea mays seedlings): 121.6 (± 7) %
Concentration with highest activity (Zea mays seedlings; root dry mass): 10^-7 mol.1^-1
Concentration with highest activity (Zea mays seedlings; shoot dry mass): 10^-6 mol.1^-1

C/C(=C/CNc1nc(F)nc2c1ncn2C1CCCCO1)CO (stereo not shown) [Compound 71]
CC50 at 72 h [4]: > 167 µM
Concentration with highest activity (Arabidopsis thaliana [2]): 10^-6 mol.l^-1
Activity (%) [10^-8 mol.l^-1 Kin = 100%] (Arabidopsis thaliana [2]): 71.8 (± 7) %
Concentration with highest activity (excised wheat leaf tips): 10^-4 mol.l^-1
Activity (%) [10^-4mol.l^-1 KTHP = 100%] (excised wheat leaf tips): 113 (± 18) %
CC50 at 72 h [5, 8]: > 167 µM
CC50 at 72 h [6]: > 167 µM
Root dry mass (%) [4 x 10^-8 mol.l^-1 Kin = 100%] (Zea mays seedlings): 172.5 (± 14) %
Shoot dry mass (%) [10^-6 mol.l^-1 Kin = 100%] (Zea mays seedlings): 111.1 (± 6) %
Concentration with highest activity (Zea mays seedlings; root dry mass): 10^-7 mol.1^-1
Concentration with highest activity (Zea mays seedlings; shoot dry mass): 10^-6 mol.1^-1

CC(CO)CCNc1nc(F)nc2c1ncn2C1CCCCO1 (stereo not shown) [Compound 72]
CC50 at 72 h [4]: > 167 µM
Concentration with highest activity (Arabidopsis thaliana [2]): 10^-6 mol.l^-1
Activity (%) [10^-8 mol.l^-1 Kin = 100%] (Arabidopsis thaliana [2]): 68.5 (± 2) %
Concentration with highest activity (excised wheat leaf tips): 10^-4 mol.l^-1
Activity (%) [10^-4mol.l^-1 KTHP = 100%] (excised wheat leaf tips): 103 (± 7) %
CC50 at 72 h [5, 8]: > 167 µM
CC50 at 72 h [6]: > 167 µM
Root dry mass (%) [4 x 10^-8 mol.l^-1 Kin = 100%] (Zea mays seedlings): 161.3 (± 21) %
Shoot dry mass (%) [10^-6 mol.l^-1 Kin = 100%] (Zea mays seedlings): 104.8 (± 7) %
Concentration with highest activity (Zea mays seedlings; root dry mass): 10^-7 mol.1^-1
Concentration with highest activity (Zea mays seedlings; shoot dry mass): 10^-6 mol.1^-1

Oc1cccc(CNc2ncnc3[nH]cnc23)c1 [meta-topolin, reference compound]
CC50 at 72 h [4]: 166 µM
CC50 at 72 h [5, 8]: > 167 µM
CC50 at 72 h ([5]; Cytotoxicity IC50, B10A.4, second column headed B10A.4): 178 µM
CC50 at 72 h [6]: 167 µM
Primary root length 7-d, WT = 100% (Arabidopsis thaliana [7]; [9]): 67.1 (±7.2) %
Primary root length 7-d, WT = 100% (Arabidopsis thaliana [7]; [10]): 33.9 (±2.0) %
Primary root length 7-d, WT = 100% (Arabidopsis thaliana [7]; [11]): 19.3 (±2.3) %
